According to publication PMC7999182, “Interaction of Remdesivir with Clinically Relevant Hepatic Drug Uptake Transporters” (Pharmaceutics, 2021):

Target: T1, OATP2B1 (Homo sapiens, UniProt O94956)
T1 construct: expressed in transfected cells
T1 sequence (O94956 1-709): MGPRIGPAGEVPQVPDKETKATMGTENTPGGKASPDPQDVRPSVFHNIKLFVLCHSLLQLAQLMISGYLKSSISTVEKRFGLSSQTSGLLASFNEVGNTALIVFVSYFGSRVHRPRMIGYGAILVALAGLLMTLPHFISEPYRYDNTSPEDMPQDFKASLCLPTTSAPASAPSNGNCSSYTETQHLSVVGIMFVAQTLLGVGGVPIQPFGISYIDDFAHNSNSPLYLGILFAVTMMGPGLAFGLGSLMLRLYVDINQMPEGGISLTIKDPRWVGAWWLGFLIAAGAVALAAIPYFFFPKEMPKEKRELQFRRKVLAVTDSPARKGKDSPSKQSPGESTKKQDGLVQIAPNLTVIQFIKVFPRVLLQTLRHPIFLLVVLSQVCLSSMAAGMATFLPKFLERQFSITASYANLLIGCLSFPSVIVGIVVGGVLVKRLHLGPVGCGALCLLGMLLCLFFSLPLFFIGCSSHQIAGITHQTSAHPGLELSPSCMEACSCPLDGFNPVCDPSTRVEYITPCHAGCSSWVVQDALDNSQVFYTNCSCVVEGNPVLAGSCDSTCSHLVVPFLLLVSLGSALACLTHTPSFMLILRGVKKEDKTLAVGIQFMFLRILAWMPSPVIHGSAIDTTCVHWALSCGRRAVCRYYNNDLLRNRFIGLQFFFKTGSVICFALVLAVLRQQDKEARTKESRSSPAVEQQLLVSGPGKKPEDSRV
Experiment: Inhibition of OATP2B1-mediated estrone sulfate uptake
Assay type: cell-based
From the text: Generation, cultivation and characterization of human embryonic kidney (HEK) cells stably expressing OATP1B1 refseq (=OATP1B1*1a), OATP1B1*1b, OATP1B1*5 and OATP1B1*15 [18], OATP1B3 [19], OATP2B1 [13] and OCT1 [20] have been described previously. OATP1B1 cells were cultivated in minimal essential medium (Life Technologies, Paisley, UK) and OATP1B3, OATP2B1 and OCT1 cells were cultivated in Dulbecco’s modified Eagle medium (Sigma, Darmstadt, Germany). Cultivation media were supplemented with 10% fetal calf serum, 100 U/mL penicillin and 100 µg/mL streptomycin. Cells were grown at 37 °C and 5% CO2. Functionality of the cells was confirmed by measuring uptake of prototypic substrates (see Section 2.3 and supplementary material).
Prototypic substrate uptake was performed as described previously. For this, uptake solutions contained the respective substrate with tracer amounts of radiolabeled substrate. In case of inhibition studies, uptake solutions additionally contained different concentrations of remdesivir. […] Cells were then lysed with 0.2% sodium dodecyl sulfate and intracellular radioactivity was measured by liquid scintillation counting (Tricarb2800, PerkinElmer Life Sciences GmbH, Rodgau, Germany or Hidex 300SL TDCR liquid scintillation counter, Turku, Finland). […]

Compound: CCC(CC)COC(=O)[C@H](C)N[P@](=O)(OC[C@H]1O[C@@](C#N)(c2ccc3c(N)ncnn23)[C@H](O)[C@@H]1O)Oc1ccccc1 [Remdesivir]
- Effect on prototypic substrate uptake (1 µM estrone sulfate, 30 sec uptake, different remdesivir concentrations): significant concentration-dependent inhibitory effect
- Transporter inhibition at 10 µM (10 µM remdesivir, estrone sulfate as substrate): inhibition
